Measured values taken from PMC3323305 (2011).

Target: 18-kDa Translocator Protein (TSPO) (Homo sapiens, UniProt P30536, T147A)
Test: radioligand competition against [3H]PK11195 in human platelet membranes
Assay type: binding

Chain of 18-kDa Translocator Protein (TSPO) (P30536 2-169 T147A): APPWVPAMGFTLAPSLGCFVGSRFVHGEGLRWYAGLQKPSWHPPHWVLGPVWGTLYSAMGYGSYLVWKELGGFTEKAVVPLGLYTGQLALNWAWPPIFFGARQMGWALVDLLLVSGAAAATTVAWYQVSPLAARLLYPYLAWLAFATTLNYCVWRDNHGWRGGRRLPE

`COc1ccccc1CN(C(C)=O)c1cnccc1Oc1ccccc1` [PBR28] gave a Ki of 2.17 ± 0.17 nM.
